Measured values from patent publication US9060979B2, “Antidepressant” (OTSUKA PHARMACEUTICAL FACTORY, INC., priority 2006, dated 2015).

Test system: SD rats
Experiment: Defensive withdrawal test in rats under stress (time to come out of a cylinder)
Type: in vivo, rat
Details: for antidepressant effect: same defensive withdrawal tests in SD rats as for L-isoleucine
Experimental: SD rats (10-week-old) were divided into two groups (10 rats in each group). One group (control group) was kept for 6 days with free access to food (standard AIN-76 diet manufactured by Nosan Corporation) and water. The other group (present invention group) was kept for 6 days with free access to food (standard AIN-76 diet containing 1% by mass of L-isoleucine) and water. Using these subject animals, depression-improving activity in rats under stress was tested according to the defensive withdrawal test method by Gutman, D. A. et al. (The Journal of Pharmacology and Experimental Therapeutics, 304 (2), 874 (2003)). That is, a rat (one from each group) was dropped, tail first, into an upright black cylinder 10 cm in diameter and 20 cm in length, and immediately covered with a lid. After 10 seconds, the cylinder was placed in an open field (100 cm long, 100 cm wide, and 45 cm high) made up of white acrylic boards, facing one corner, at a position 20 cm from the corner. […] The test was carried out under an illuminance of 200 1× in a soundproof room, and behavior of the rat was videotaped from above and observed using a monitor outside the soundproof room. Statistical processing was performed by two-sided Student's t-test.

SMILES	antidepressant effect	time the rat took to come out of the cylinder (SD rats, 10-week-old, 6 days free access to AIN-76 diet containing 1% by mass of the amino acid, observed 5 minutes, compared to control group)
CC(C)C[C@H](N)C(=O)O [L-leucine]	same antidepressant effect as that of L-isoleucine was confirmed	
CC(C)[C@H](N)C(=O)O [L-valine]	same antidepressant effect as that of L-isoleucine was confirmed	
CC[C@H](C)[C@H](N)C(=O)O [L-isoleucine]		significantly shorter time to come out of the cylinder
